The target of one assay is T1, Csk (Homo sapiens, UniProt P41240).
T1 construct: GST (glutathione-S-transferase) (N); made in house; host or cells: E. coli (pGEX vector)
Kind of assay: Csk tyrosine kinase activity, poly E4Y and 32P-ATP. The assay is classed as biochemical. The settings on record: screening assay, 50 μg/ml poly E4Y, 0.2 mM 32P-ATP. As to the method: (§1) Recombinant human Src was expressed using the baculovirus-insect cell system and purified as published (Budde et al., 1993 and 2000). Recombinant Csk and the FGF receptor (FGFr) were expressed as glutathione-S-transferase fusion proteins using the pGEX expression vector and E. coli, and purified as described (Sun & Budde, 1995).
(§2) The tyrosine kinase activity of Src, Csk and FGFr was determined using poly E4Y and ^32P-ATP. Briefly, enzymes were assayed in a reaction mixture consisting of 0.15 M EPPS-NaOH (pH 8.0) with 6 mM MgCl2, 0.2 mM γ^32P-ATP (0.2-0.4 mCi/μmol), 10% glycerol, 0.1% Triton X-100, and poly E4Y. Poly E4Y is a synthetic peptide whose phosphorylation is measured in this assay by the addition of the radioactively labeled phosphate from the ATP (Budde et al., 1995). […] When ATP was varied (0, 50, 100 and 250 μM), poly E4Y was kept constant at 150 μg/ml.

The next assay deals with T2, Recombinant human Src (Homo sapiens, UniProt P12931).
T2 construct: made in house; host or cells: baculovirus-insect cell system
Kind of assay: Src tyrosine kinase activity, poly E4Y and 32P-ATP. The format is biochemical. As to the method:
as §1, §2

[1] abbreviates: Table 2, read-out: Src IC50 (especially good inhibitors of Src).
Setting [2] is: read-out: IC50 (preferred compounds for treatment of Src family-related disease).

Experimental findings from patent US7285556B2, “Thienopyrimidine-based inhibitors of the src family” (Board of Regents, The University of Texas Systems, priority 2000, dated 2007) are described below.

Read-outs that look alike come from different tables or passages of the source. Where only a bound is given, the exact number is not on record here.

T2 sequence (P12931 whole entry): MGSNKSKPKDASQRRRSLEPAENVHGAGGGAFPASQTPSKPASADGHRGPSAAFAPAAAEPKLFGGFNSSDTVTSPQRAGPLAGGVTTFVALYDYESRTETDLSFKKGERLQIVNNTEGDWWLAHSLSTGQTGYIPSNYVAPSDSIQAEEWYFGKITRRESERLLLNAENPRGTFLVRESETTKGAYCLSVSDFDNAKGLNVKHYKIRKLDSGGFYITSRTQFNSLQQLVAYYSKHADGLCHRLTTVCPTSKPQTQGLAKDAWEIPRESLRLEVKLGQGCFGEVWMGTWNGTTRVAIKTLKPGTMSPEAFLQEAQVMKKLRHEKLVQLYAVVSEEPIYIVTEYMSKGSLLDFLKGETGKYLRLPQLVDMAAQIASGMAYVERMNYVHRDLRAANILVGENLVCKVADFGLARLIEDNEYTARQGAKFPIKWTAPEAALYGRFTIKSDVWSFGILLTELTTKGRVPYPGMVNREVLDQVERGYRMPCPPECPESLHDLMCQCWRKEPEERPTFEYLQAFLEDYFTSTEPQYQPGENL
T1 sequence (P41240 whole entry, species assumed): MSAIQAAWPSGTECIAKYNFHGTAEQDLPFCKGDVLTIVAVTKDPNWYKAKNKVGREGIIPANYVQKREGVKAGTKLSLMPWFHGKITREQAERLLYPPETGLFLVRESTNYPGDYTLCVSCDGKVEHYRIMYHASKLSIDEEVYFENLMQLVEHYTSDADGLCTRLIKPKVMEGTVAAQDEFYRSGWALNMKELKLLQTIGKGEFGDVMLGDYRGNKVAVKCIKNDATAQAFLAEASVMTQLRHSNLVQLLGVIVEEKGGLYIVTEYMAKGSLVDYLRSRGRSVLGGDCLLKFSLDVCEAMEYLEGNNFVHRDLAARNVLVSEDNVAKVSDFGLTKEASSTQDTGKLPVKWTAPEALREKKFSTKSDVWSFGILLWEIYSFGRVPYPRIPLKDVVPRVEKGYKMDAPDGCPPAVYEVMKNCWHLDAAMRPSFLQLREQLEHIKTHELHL

The IC50 is the point on the concentration scale where inhibition reaches its midpoint. The molecule `Cc1csc2c(NN=Cc3ccc(F)cc3)ncnc12` [Compound 6, 4-Fluorobenzaldehyde(7-methylthieno[3,2-d]pyrimidin-4-yl)hydrazone] returned an IC50 against Csk of more than 175 µM.

On to `Cc1csc2c(NN=Cc3ccc(O)cc3)ncnc12` [Compound 10, 4-Hydroxybenzaldehyde(7-methylthieno[3,2-d]pyrimidin-4-yl)hydrazone], for which the IC50 against Csk is more than 176 µM.

For the molecule `CC(=O)Nc1ccc(C=NNc2ncnc3c(C)csc23)cc1` [Compound 20, 4-Acetamidobenzaldehyde(7-methylthieno[3,2-d]pyrimidin-4-yl)hydrazone], the IC50 on Csk was more than 154 µM.

Regarding `Cc1csc2c(NN=CC3CCCCC3)ncnc12` [Compound 25, Cyclohexanecarboxaldehyde(7-methylthieno[3,2-d]pyrimidin-4-yl)hydrazone], the IC50 on Csk was more than 182 µM.

Regarding `Cc1csc2c(NN=Cc3ccccn3)ncnc12` [Compound 26, 2-Pyridinecarboxaldehyde(7-methylthieno[3,2-d]pyrimidin-4-yl)hydrazone], the IC50 against Csk was more than 186 µM.

Consider `Cc1csc2c(NN=Cc3ccc(C(=O)O)cc3)ncnc12` [Compound 28, 4-Carboxybenzaldehyde(7-methylthieno[3,2-d]pyrimidin-4-yl)hydrazone], for which, at Csk, the IC50 was more than 160 µM.

For the molecule `Cc1csc2c(NN=Cc3ncc[nH]3)ncnc12` [Compound 34, 1H-Imidazole-2-carboxaldehyde(7-methylthieno[3,2-d]pyrimidin-4-yl)hydrazone], at Csk, the IC50 is more than 194 µM.

In the case of `Cc1csc2c(NN=Cc3ccoc3)ncnc12` [Compound 38, 3-Furancarboxaldehyde(7-methylthieno[3,2-d]pyrimidin-4-yl)hydrazone], at Csk, the IC50 was more than 194 µM.

In the case of `Cc1csc2c(NN=Cc3nccs3)ncnc12` [Compound 40, 2-Thiazolecarboxaldehyde(7-methylthieno[3,2-d]pyrimidin-4-yl)hydrazone], the IC50 at Csk is more than 182 µM.

With `Cc1csc2c(NN=Cc3ccccc3Cl)ncnc12` [Compound 45, 2-Chlorobenzaldehyde(7-methylthieno[3,2-d]pyrimidin-4-yl)hydrazone], on Csk, the IC50 is more than 165 µM.

Turning to `Cc1csc2c(NN=Cc3ccc(Br)cc3)ncnc12` [Compound 56], the IC50 at Csk was more than 144 µM.

In the case of `Cc1sc2c(NN=Cc3ccc(F)cc3)ncnc2c1C` [Compound 93, 4-Fluorobenzaldehyde(6,7-dimethylthieno[3,2-d]pyrimidin-4-yl)hydrazone], the IC50 against Csk was more than 166 µM.

`Cc1csc2c(NN=Cc3nccn3C)ncnc12` [Compound 101, 1-Methyl-1H-imidazole-2-carboxaldehyde(7-methylthieno[3,2-d]pyrimidin-4-yl)hydrazone] returned an IC50 against Csk of more than 184 µM.

At Csk, `Cc1ccsc1C=NNc1ncnc2c(C)csc12` [Compound 119, 3-Methyl-2-thiophenecarboxaldehyde(7-methylthieno[3,2-d]pyrimidin-4-yl)hydrazone] showed an IC50 of more than 173 µM.

At Csk, `CCCOc1ccc(C=NNc2ncnc3c(C)csc23)cc1` [Compound 134, 4-Propoxybenzaldehyde(7-methylthieno[3,2-d]pyrimidin-4-yl)hydrazone] returned an IC50 of more than 153 µM.

On Csk, `CCCOc1cccc(C=NNc2ncnc3c(C)csc23)c1` [Compound 135, 3-Propoxybenzaldehyde(7-methylthieno[3,2-d]pyrimidin-4-yl)hydrazone] had an IC50 of more than 153 µM.

`CCCCOc1cccc(C=NNc2ncnc3c(C)csc23)c1` [Compound 139] yielded a concentration for half-maximal inhibition (IC50) at Csk of more than 147 µM.

On Csk, `Cc1csc2c(NN=Cc3cccc([N+](=O)[O-])c3)ncnc12` [Compound 144] came in with a half-inhibitory concentration (IC50) of more than 160 µM.

The molecule `CC=NNc1ncnc2c(C)csc12` [Compound 153, Ethanal(7-methylthieno[3,2-d]pyrimidin-4-yl)hydrazone] had an IC50 on Csk of more than 242 µM.

In turn, `CSc1ccc(C=NNc2ncnc3c(C)csc23)cc1` [Compound 172, 4-(Methylthio)benzaldehyde(7-methylthieno[3,2-d]pyrimidin-4-yl)hydrazone] registered an IC50 against Csk of more than 159 µM.

The molecule `CCC=NNc1ncnc2c(C)csc12` [Compound 173, Propanal(7-methylthieno[3,2-d]pyrimidin-4-yl)hydrazone] registered an IC50 on Csk of more than 227 µM.

On Csk, `CCCC=NNc1ncnc2c(C)csc12` [Compound 174, Butanal(7-methylthieno[3,2-d]pyrimidin-4-yl)hydrazone] came in with an IC50 of more than 213 µM.

The molecule `CCCCC=NNc1ncnc2c(C)csc12` [Compound 175, Pentanal(7-methylthieno[3,2-d]pyrimidin-4-yl)hydrazone] registered an IC50 on Csk of more than 201 µM.

On to `Cc1csc2c(NN=CC3CC=CCC3)ncnc12` (stereo not shown) [Compound 181, 3-Cyclohexene-1-carboxaldehyde(7-methylthieno[3,2-a]pyrimidin-4-yl)hydrazone], for which the IC50 against Csk is more than 184 µM.

Regarding `CC=CC=NNc1ncnc2c(C)csc12` [Compound 182, E-2-Butenal(7-methylthieno[3,2-d]pyrimidin-4-yl)hydrazone], on Csk, the IC50 is more than 215 µM.

`N#Cc1ccc(C=NNc2ncnc3c2sc2ncccc23)cc1` [Compound 248]: the IC50 on Csk is more than 151 µM.

`Cc1csc2c(NN=Cc3cccc(C(=O)O)c3)ncnc12` [Compound 249, 3-Carboxybenzaldehyde(7-methylthieno[3,2-d]pyrimidin-4-yl)hydrazone]: on Csk, the IC50 was more than 160 µM.

At Csk, `C(=NNc1ncnc2cc(-c3ccccc3)sc12)c1cccs1` [Compound 253] returned an IC50 of more than 149 µM.

`Clc1cccc(-c2cc3ncnc(NN=Cc4cccnc4)c3s2)c1` [Compound 304, 3-Pyridinecarboxaldehyde(6-(3-chlorophenyl)thieno[3,2-d]pyrimidin-4-yl)hydrazone] displayed an IC50 on Csk of more than 137 µM.

Turning to `Clc1cccc(-c2cc3ncnc(NN=Cc4cccs4)c3s2)c1` [Compound 306], at Csk, the IC50 is more than 135 µM.

Molecule `Clc1ccc(-c2cc3ncnc(NN=Cc4cccnc4)c3s2)cc1` [Compound 308, 3-Pyridinecarboxaldehyde(6-(4-chlorophenyl)thieno[3,2-d]pyrimidin-4-yl)hydrazone] showed an IC50 on Csk of more than 137 µM.

As for `Clc1ccc(-c2cc3ncnc(NN=Cc4cccs4)c3s2)cc1` [Compound 310], the IC50 at Csk was more than 135 µM.

Consider `Cc1c(I)sc2c(NN=Cc3cccs3)ncnc12` [Compound 374, 2-Thiophenecarboxaldehyde(6-iodo-7-methylthieno[3,2-d]pyrimidin-4-yl)hydrazone], for which, at Csk, the IC50 was more than 125 µM.

In the case of `Ic1cc2ncnc(NN=Cc3cccs3)c2s1` [Compound 396, 2-Thiophenecarboxaldehyde(6-iodothieno[3,2-d]pyrimidin-4-yl)hydrazone], the IC50 at Csk is more than 129 µM.

With `Cc1c(C(O)c2cccnc2)sc2c(NN=Cc3cccnc3)ncnc12` (stereo not shown) [Compound 483, 3-Pyridinecarboxaldehyde(6-(1-hydroxy-1-[3-pyridyl])methyl-7-methylthieno[3,2-d]pyrimidin-4-yl)hydrazone], the results for the IC50 on Recombinant human Src (setting [1]) and on Recombinant human Src (setting [2]) were not above 2 µM and less than 2 µM, respectively.

For `Cc1c(C(O)c2cccnc2)sc2c(NN=Cc3ccc(C(=O)O)cc3)ncnc12` (stereo not shown) [Compound 484, 4-Carboxybenzaldehyde(6-(1-hydroxy-1-[3-pyridyl])methyl-7-methylthieno[3,2-d]pyrimidin-4-yl)hydrazone], the IC50 was not above 2 µM at Recombinant human Src (setting [1]) and less than 2 µM at Recombinant human Src (setting [2]).

Regarding `Cc1c(C(O)c2cccnc2)sc2c(NN=Cc3cccs3)ncnc12` (stereo not shown) [Compound 485, 2-Thiophenecarboxaldehyde(6-(1-hydroxy-1-[3-pyridyl])methyl-7-methylthieno[3,2-d]pyrimidin-4-yl)hydrazone], the IC50 at Recombinant human Src (setting [1]) was not above 2 µM; on Recombinant human Src (setting [2]) it was less than 2 µM.

Take `COc1ccc(C=NNc2ncnc3c(C)c(C(O)c4cccnc4)sc23)cc1O` (stereo not shown) [Compound 486, 3-Hydroxy-4-methoxybenzaldehyde(6-(1-hydroxy-1-[3-pyridyl])methyl-7-methylthieno[3,2-d]pyrimidin-4-yl)hydrazone]: the IC50 was not above 2 µM on Recombinant human Src (setting [1]) and less than 2 µM at Recombinant human Src (setting [2]).

Consider `Cc1c(C(O)c2cccs2)sc2c(NN=Cc3cccnc3)ncnc12` (stereo not shown) [Compound 487, 3-Pyridinecarboxaldehyde(6-(1-hydroxy-1-[2-thienyl])methyl-7-methylthieno[3,2-d]pyrimidin-4-yl)hydrazone], for which the IC50 on Recombinant human Src (setting [2]) is less than 2 µM.

In the case of `Cc1c(C(O)c2cccs2)sc2c(NN=Cc3ccc(C(=O)O)cc3)ncnc12` (stereo not shown) [Compound 488, 4-Carboxybenzaldehyde(6-(1-hydroxy-1-[2-thienyl])methyl-7-methylthieno[3,2-d]pyrimidin-4-yl)hydrazone], the IC50 on Recombinant human Src (setting [1]) was not above 2 µM; on Recombinant human Src (setting [2]), less than 2 µM.

On to `Cc1c(C(O)c2cccs2)sc2c(NN=Cc3cccs3)ncnc12` (stereo not shown) [Compound 489, 2-Thiophenecarboxaldehyde(6-(1-hydroxy-1-[2-thienyl])methyl-7-methylthieno[3,2-d]pyrimidin-4-yl)hydrazone], for which the IC50 is not above 2 µM at Recombinant human Src (setting [1]) and less than 2 µM at Recombinant human Src (setting [2]).

Turning to `COc1ccc(C=NNc2ncnc3c(C)c(C(O)c4cccs4)sc23)cc1O` (stereo not shown) [Compound 490, 3-Hydroxy-4-methoxybenzaldehyde(6-(1-hydroxy-1-[2-thienyl])methyl-7-methylthieno[3,2-d]pyrimidin-4-yl)hydrazone], the results for the IC50 on Recombinant human Src (setting [1]) and at Recombinant human Src (setting [2]) were not above 2 µM and less than 2 µM, respectively.
